From ChEMBL document CHEMBL5625235, “Discovery of X10g as a selective PROTAC degrader of Hsp90α protein for treating breast cancer” (Eur J Med Chem, 2023)
The source made the active and inactive calls. No cut-off for these calls is given here.

What was measured:
[1] = target: Protein cereblon/Heat shock protein HSP 90-alpha (Homo sapiens, UniProt P07900+Q96SW2); test: PROTAC activity at CRBN/HSP90alpha in human MCF7 cells assessed as induction of HSP90alpha degradation at 0.5 uM incubated for 8 hrs by Western blot analysis; type: cell-based
MCF7 [2] = test: Antiproliferative activity against human MCF7 cells assessed as inhibition of cell proliferation incubated for 72 hrs by MTT assay; type: functional, cell-based; conditions: MCF7, 72 h
MDA-MB-231 = test: Antiproliferative activity against human MDA-MB-231 cells assessed as inhibition of cell proliferation incubated for 72 hrs by MTT assay; type: functional, cell-based; conditions: MDA-MB-231, 72 h
MX1 = test: Antiproliferative activity against human MX1 cells assessed as inhibition of cell proliferation incubated for 72 hrs by MTT assay; type: functional, cell-based; conditions: MX1, 72 h
[3] = target: Protein cereblon/Heat shock protein HSP 90-beta (Homo sapiens) (UniProt P08238+Q96SW2); test: PROTAC activity at CRBN/HSP90beta in human MCF7 cells assessed as induction of HSP90beta degradation at 0.5 uM incubated for 8 hrs by Western blot analysis; type: cell-based
MDA-MB-468 = test: Antiproliferative activity against human MDA-MB-468 cells assessed as inhibition of cell proliferation incubated for 72 hrs by MTT assay; type: functional, cell-based; conditions: MDA-MB-468, 72 h
[4] = target: Heat shock protein HSP 90-alpha (Homo sapiens, UniProt P07900); test: Inhibition of 6His-tagged human HSP90alpha N-terminal domain (1 to 223 residues) expressed in Escherichia coli BL21 DE3 cells incubated for 24 hrs by fluorescence polarization assay
[5] = target: Heat shock protein HSP 90-beta (Homo sapiens, UniProt P08238); test: Inhibition of HSP90beta (unknown origin) incubated for 24 hrs by fluorescence polarization assay
Chain of Heat shock protein HSP 90-beta (P08238 whole entry): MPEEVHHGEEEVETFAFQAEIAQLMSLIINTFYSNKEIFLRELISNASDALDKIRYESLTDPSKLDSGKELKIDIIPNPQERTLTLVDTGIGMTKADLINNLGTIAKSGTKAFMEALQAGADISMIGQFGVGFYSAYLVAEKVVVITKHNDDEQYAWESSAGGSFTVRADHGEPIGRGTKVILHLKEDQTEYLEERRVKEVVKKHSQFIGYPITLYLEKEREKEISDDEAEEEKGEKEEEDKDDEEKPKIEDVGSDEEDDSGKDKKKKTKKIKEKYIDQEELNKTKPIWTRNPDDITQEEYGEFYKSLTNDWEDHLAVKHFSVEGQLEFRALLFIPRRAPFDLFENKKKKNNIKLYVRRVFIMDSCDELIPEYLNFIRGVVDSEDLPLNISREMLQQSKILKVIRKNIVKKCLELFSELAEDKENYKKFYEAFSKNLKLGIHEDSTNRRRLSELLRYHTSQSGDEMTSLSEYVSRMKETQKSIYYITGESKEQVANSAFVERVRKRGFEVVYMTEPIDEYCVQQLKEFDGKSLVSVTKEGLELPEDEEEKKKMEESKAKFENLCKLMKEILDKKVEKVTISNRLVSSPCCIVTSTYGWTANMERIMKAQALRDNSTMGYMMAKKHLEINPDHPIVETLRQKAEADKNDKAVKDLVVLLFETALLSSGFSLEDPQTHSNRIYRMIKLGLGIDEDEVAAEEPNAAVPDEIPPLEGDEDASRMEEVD

MCF7 [6] = test: Potency index, ratio of AT13387 IC50 to test compound IC50 for antiproliferative activity against human MCF7 cells assessed as inhibition of cell proliferation incubated for 72 hrs by MTT assay; type: functional

Row | SMILES | Activity [1] | IC50 (MCF7 [2]) | IC50 (MDA-MB-231) | IC50 (MX1) | Activity [3] | IC50 (MDA-MB-468) | IC50 [4] | IC50 [5] | Ratio IC50 (MCF7 [6])
1 | CC(C)c1cc(C(=O)N2Cc3ccc(CN4CCN(CCCCC(=O)Nc5cccc6c5C(=O)N(C5CCC(=O)NC5=O)C6=O)CC4)cc3C2)c(O)cc1O (stereo not drawn) | inactive | 4.28 µM | 18.8 µM | 6780 nM | inactive | 5.27 µM |  |  | 
2 | CC(C)c1cc(C(=O)N2Cc3ccccc3C2)ccc1O |  |  |  |  |  |  | 410 nM | 4470 nM | 
3 | CC(C)c1cc(C(=O)N2Cc3ccc(CN4CCN(C(=O)CCCCNc5cccc6c5CN(C5CCC(=O)NC5=O)C6=O)CC4)cc3C2)c(O)cc1O (stereo not drawn) | inactive | 1.3 µM | 4.3 µM | 2020 nM | inactive | 13.2 µM |  |  | 
4 | CC(C)c1cc(C(=O)N2Cc3ccc(CN4CCN(CCC(=O)Nc5cccc6c5C(=O)N(C5CCC(=O)NC5=O)C6=O)CC4)cc3C2)ccc1O (stereo not drawn) |  | 27.1 µM | > 100 µM | > 100000 nM |  | > 100 µM |  |  | 
5 | CC(C)c1cc(C(=O)N2Cc3ccc(CN4CCN(CCCCCC(=O)Nc5cccc6c5C(=O)N(C5CCC(=O)NC5=O)C6=O)CC4)cc3C2)ccc1O (stereo not drawn) |  | 30.5 µM | 71.8 µM | 34600 nM |  | 30.1 µM |  |  | 
6 | CC(C)c1cc(C(=O)N2Cc3ccccc3C2)c(O)cc1O |  |  |  |  |  |  |  | 4 nM | 
7 | CC(C)c1cc(C(=O)N2Cc3ccc(CN4CCN(CCCCCC(=O)Nc5cccc6c5C(=O)N(C5CCC(=O)NC5=O)C6=O)CC4)cc3C2)c(O)cc1O (stereo not drawn) | inactive | 0.58 µM | 5.11 µM | 30 nM | inactive | 27.2 µM |  |  | 
8 | CC(C)c1ccc(O)c(C(=O)N2Cc3ccccc3C2)c1 |  |  |  |  |  |  | 3210 nM | 1600 nM | 
9 | CC(C)c1cc(C(=O)N2Cc3ccc(CN4CCN(CCCC(=O)Nc5cccc6c5C(=O)N(C5CCC(=O)NC5=O)C6=O)CC4)cc3C2)ccc1O (stereo not drawn) |  | 7.5 µM | 72.8 µM | 40800 nM |  | 41.6 µM |  |  | 
10 | CC(C)c1cc(C(=O)N2Cc3ccc(CN4CCN(C(=O)CCCCCNc5cccc6c5CN(C5CCC(=O)NC5=O)C6=O)CC4)cc3C2)c(O)cc1O (stereo not drawn) | inactive | 4.47 µM | 4.79 µM | 1930 nM | inactive | 0.75 µM |  |  | 
11 | CC(C)c1cc(C(=O)N2Cc3ccc(CN4CCN(CCC(=O)Nc5cccc6c5C(=O)N(C5CCC(=O)NC5=O)C6=O)CC4)cc3C2)c(O)cc1O (stereo not drawn) | inactive | 0.03 µM | 6.8 µM | 90 nM | inactive | 6.19 µM |  |  | ~35
